Reference: patent US7157570B2, “Human ribonucleotide reductase M2 subunit” (priority 2002, dated 2007)

Experiments:
KBGem clone = conditions: cited from earlier work
KB cells = experiment: colony-forming assay; format: cell-based, human; conditions: drug alone (0.1 mM HU or 0.3 μM Gem)
Experimental: Human oropharyngeal carcinoma KB cells (American Type Culture Collection) were cultured on plastic tissue culture plates in RPMI 1640 supplemented with 10% fetal bovine serum at 37° C. in a humidified atmosphere containing 5% carbon dioxide. […] In all studies, HU was included in the growth medium where indicated at a concentration of 0.1 mM while Gem was provided at a concentration of 0.3 μM.
The colony-forming ability of KB cells treated with HU and/or Gem at varying times was determined. Equal numbers of logarithmically growing cells were treated with HU and/or Gem at the times specified and then plated in 6-well tissue culture dishes as previously described (Zhou et al. (1998) Biochem Pharmaco 55, 1657–1665). The numbers of colonies, consisting of at least 50 cells, for each sample were counted after incubation at 37° C. for 8 generation times.
The colony-forming ability of KB cells treated with HU and/or Gem was assayed using the ID50 concentrations for KB cells. KB cells were exposed to 0.1 mM HU. 0.3 μM Gem was added after 2 to 24 hours of HU treatment, and then cells were assayed for their colony forming ability.

[1] = phase I trial: dose-limiting toxicities and MTD; format: in vivo, human; conditions: on days 2 and 9; HU 500 mg every 6 h x4 on days 1 and 8
Experimental: Pregnant female patients were excluded.
Patients received the chemotherapy as outpatients.
Hematologic dose-limiting toxicity (DLT) was defined as a platelet count <75,000/μl on day 8, or a platelet count <25,000/μl lasting seven or more days, an ANC <1,000/μl on day 8 or an ANC <500/μl lasting seven or more days. Hepatic DLT was defined as bilirubin 4.5–6.0 mg/dl or transaminase 8.0–20.0 times normal (grade 3), and bilirubin >6.0 mg/dl or transaminase more than 20.0 times normal (grade 4). Other toxicities were graded according to the NCl Common Toxicity Criteria Version 1.0. Dose escalations and determination of the maximum tolerated dose (MTD) were based on DLT occurring in the first cycle. MTD was defined as the highest dose tested at which none or only one patient experienced DLT when at least six patients were treated at that dose and were evaluable for toxicity. Patients received additional cycles of therapy until unacceptable toxicity required discontinuation of treatment, the patient requested discontinuation, or disease progression occurred.

clinical = experiment: clinical; set-up: species or system human; conditions: in vivo
Experimental: Blood sample were collected in heparinized tubes and kept on ice until plasma could be separated by centrifugation (within 30 min). Plasma was transferred to polypropylene tubes containing tetrahydrouridine to inhibit cytidine deaminase and stored at -70° C. until analysis. […] Detection was performed by UV absorbance at 275 nm. […] The inter- and intra-day coefficient of variation across the entire range of the standard curve were <10%, and the accuracies were ±7%. The lower limit of quantification of the assay was 5 ng/ml. […] Data were fitted to a two-compartment model with first-order elimination.

## Nc1ccn([C@@H]2O[C@H](CO)[C@@H](O)C2(F)F)c(=O)n1 [Gemcitabine, gemcitabine]
KBGem clone
  increase in resistance (to Gem): 10 fold
KB cells
  colony formation, % of untreated controls: approximately 50%
[1]
  MTD for gemcitabine in this combination of drugs: 750 mg/m^2
clinical; human
  t1/2 alpha: 2.4 ± 1.4 min
  variation of CLsys within a single dose level: about 6 fold
clinical; human, t1/2 alpha
  half-life: 2.6 ± 1.9 min
clinical; human, t 1/2 alpha, Mean
  half-life: 2.7 min
clinical; human, t1/2 beta
  half-life: 15.2 ± 5.3 min
clinical
  differences in pharmacokinetic parameters between day 2 and day 9: no significant differences
  effect of administered dose on CLsys: no apparent effect
